Tested on: P12-Ichikawa
Assay: cell viability relative to DMSO control; higher = less cytotoxic
Details: 48 h
Procedure, shortened: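 Three leukemia lines were tested: NOMO1 and SEM at 500 cells/well and P12-Ichikawa at 1000 cells/well. Each was adapted for at least four passages in each medium and seeded in 5 μl in 1536-well plates, and library compounds in DMSO were pin-dosed from 47 μM to 0.79 nM in 11 threefold steps. After 48 h at 37°C, CellTiter-Glo One luminescence was read. Viability is a percentage relative to DMSO wells on each plate, with cell-free wells as background.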

[1] = HPLM + 10% dialyzed FBS, 0.000781 µM
[2] = HPLM + 10% dialyzed FBS, 0.00234 µM
[3] = HPLM + 10% dialyzed FBS, 0.00702 µM
[4] = HPLM + 10% dialyzed FBS, 0.0211 µM
[5] = HPLM + 10% dialyzed FBS, 0.0632 µM
[6] = HPLM + 10% dialyzed FBS, 0.19 µM
[7] = HPLM + 10% dialyzed FBS, 0.569 µM
[8] = HPLM + 10% dialyzed FBS, 1.71 µM
[9] = HPLM + 10% dialyzed FBS, 5.12 µM
[10] = HPLM + 10% dialyzed FBS, 15.4 µM
[11] = HPLM + 10% dialyzed FBS, 46.1 µM
[12] = RPMI 5 mM glucose + 10% FBS, 0.000781 µM
[13] = RPMI 5 mM glucose + 10% FBS, 0.00234 µM
[14] = RPMI 5 mM glucose + 10% FBS, 0.00702 µM
[15] = RPMI 5 mM glucose + 10% FBS, 0.0211 µM
[16] = RPMI 5 mM glucose + 10% FBS, 0.0632 µM
[17] = RPMI 5 mM glucose + 10% FBS, 0.19 µM
[18] = RPMI 5 mM glucose + 10% FBS, 0.569 µM
[19] = RPMI 5 mM glucose + 10% FBS, 1.71 µM
[20] = RPMI 5 mM glucose + 10% FBS, 5.12 µM
[21] = RPMI 5 mM glucose + 10% FBS, 15.4 µM
[22] = RPMI 5 mM glucose + 10% FBS, 46.1 µM
[23] = RPMI 5 mM glucose + 10% dialyzed FBS, 0.000781 µM
[24] = RPMI 5 mM glucose + 10% dialyzed FBS, 0.00234 µM
[25] = RPMI 5 mM glucose + 10% dialyzed FBS, 0.00702 µM
[26] = RPMI 5 mM glucose + 10% dialyzed FBS, 0.0211 µM
[27] = RPMI 5 mM glucose + 10% dialyzed FBS, 0.0632 µM
[28] = RPMI 5 mM glucose + 10% dialyzed FBS, 0.19 µM
[29] = RPMI 5 mM glucose + 10% dialyzed FBS, 0.569 µM
[30] = RPMI 5 mM glucose + 10% dialyzed FBS, 1.71 µM
[31] = RPMI 5 mM glucose + 10% dialyzed FBS, 5.12 µM
[32] = RPMI 5 mM glucose + 10% dialyzed FBS, 15.4 µM
[33] = RPMI 5 mM glucose + 10% dialyzed FBS, 46.1 µM

Row | SMILES | cell viability [1] | cell viability [2] | cell viability [3] | cell viability [4] | cell viability [5] | cell viability [6] | cell viability [7] | cell viability [8] | cell viability [9] | cell viability [10] | cell viability [11] | cell viability [12] | cell viability [13] | cell viability [14] | cell viability [15] | cell viability [16] | cell viability [17] | cell viability [18] | cell viability [19] | cell viability [20] | cell viability [21] | cell viability [22] | cell viability [23] | cell viability [24] | cell viability [25] | cell viability [26] | cell viability [27] | cell viability [28] | cell viability [29] | cell viability [30] | cell viability [31] | cell viability [32] | cell viability [33]
1 | Cc1ccc(NC(=O)c2ccc(CN3CCN(C)CC3)cc2)cc1Nc1nccc(-c2cccnc2)n1 | 93.8% | 95.7% | 105% | 97.9% | 113% | 103% | 112% | 109% | 110% | 109% | 92.7% | 98.2% | 107% | 101% | 96.5% | 115% | 113% | 114% | 109% | 103% | 105% | 100% | 102% | 107% | 108% | 111% | 109% | 113% | 115% | 104% | 97.6% | 112% | 106%
2 | COc1cc2nccc(Oc3ccc(NC(=O)Nc4cc(C)on4)c(Cl)c3)c2cc1OC | 121% | 131% | 115% | 122% | 122% | 115% | 126% | 119% | 107% | 113% | 40.5% | 124% | 121% | 114% | 129% | 118% | 124% | 120% | 122% | 110% | 106% | 36.7% | – | – | – | – | – | – | – | – | – | – | –
3 | Cl.c1cnc2cc3c(cc2n1)C1CNCC3C1 | 108% | 111% | 114% | 114% | 119% | 114% | 117% | 122% | 114% | 114% | 106% | 106% | 115% | 121% | 117% | 122% | 117% | 127% | 118% | 127% | 130% | 130% | 106% | 113% | 112% | 116% | 123% | 114% | 121% | 123% | 121% | 116% | 120%
4 | C#CCN(C)[C@H](C)Cc1ccccc1 | 92.5% | 93.5% | 93.7% | 89.8% | 106% | 93% | 73.2% | 89.5% | 92.7% | 80.1% | 88.3% | 82.9% | 82.3% | 88.9% | 83.7% | 92.2% | 92.7% | 89.3% | 82.8% | 81.5% | 87.9% | 89% | 79.3% | 88.6% | 83.1% | 86.5% | 83.8% | 88.3% | 93.5% | 82% | 80.9% | 80.2% | 79.5%
5 | C=C(C)[C@@H]1CC[C@]2(C)CC[C@]3(C)[C@H](CC[C@@H]4[C@@]5(C)CC[C@H](O)C(C)(C)[C@@H]5CC[C@]43C)[C@@H]12 | 108% | 115% | 116% | 113% | 127% | 134% | 128% | 125% | 126% | 126% | 124% | – | – | – | – | – | – | – | – | – | – | – | 104% | 119% | 102% | 115% | 130% | 110% | 128% | 126% | 124% | 119% | 126%
6 | Clc1ccc(C2(c3ccc(-c4cn[nH]c4)cc3)CCNCC2)cc1 | 91.3% | 94.4% | 101% | 96.8% | 101% | 98% | 92.3% | 89.3% | 73.2% | 57.5% | 59.9% | 86.9% | 94.2% | 85.9% | 91% | 89% | 83.1% | 78.8% | 75.4% | 65.9% | 43.1% | 44.1% | 91% | 92.2% | 90.7% | 87.5% | 95% | 93.5% | 91.8% | 78.7% | 68.5% | 49.7% | 49.7%
7 | O=[N+]([O-])c1cn2c(n1)OC[C@@H](OCc1ccc(OC(F)(F)F)cc1)C2 | 124% | 126% | 121% | 120% | 120% | 111% | 113% | 111% | 112% | 118% | 110% | 124% | 125% | 138% | 141% | 131% | 132% | 127% | 118% | 105% | 111% | 121% | 120% | 116% | 111% | 126% | 115% | 113% | 113% | 100% | 101% | 109% | 107%
8 | O=C(O)c1ccccc1C(=O)Nc1ccc(-c2ccccc2)cc1 | 123% | 118% | 128% | 124% | 128% | 125% | 123% | 119% | 122% | 114% | 108% | – | – | – | – | – | – | – | – | – | – | – | 119% | 123% | 124% | 124% | 138% | 123% | 119% | 124% | 117% | 130% | 113%

From the supplement of paper PMC11451515
